Legend:
serotonin-2 receptor = experiment: Anti-serotonin action (anti-5-HT action): contraction of isolated superior mesenteric artery induced by serotonin; details: contraction induced by 10^−5 M serotonin (5-HT) taken as 100%, Hartley male guinea pig superior mesenteric artery; for Anti 5-HT action (% of Control) 10^−6 M: test drug 10^−6 M; for Anti 5-HT action (% of Control) 10^−7 M: test drug 10^−7 M
Protocol: (1) Anti-Serotonin Action (Anti-5-HT Action)
A preparation cut in a helical form was suspended under 0.3 g load in a Magnus cylinder filled with the Tyrode solution which had been aerated with a gas mixture of 95% O2+5% CO2 and maintained at 37° C. Using an isometric transducer (“UL-10”, manufactured by SHINKOH K.K.) and a pressure preamplifier (“DSA-605A”, manufactured by SHINKOH K.K.), variations in tension were measured. The isometric tensions were recorded on a pen-writing recorder (“VP-6537A”, manufactured by NATIONAL K.K.). Taking the contraction induced by 10^−5 M serotonin (5-HT) as 100%, the percent contractions in the presence of each test drug at 10^−7 and 10^−6 M were determined as anti-5-HT action.

α1 receptor = experiment: Anti-α1 action: tonic contraction of isolated thoracic aorta induced by norepinephrine; details: tonic contraction induced by 10^−5 M norepinephrine (NE) taken as 100%, Hartley male guinea pig thoracic aorta; for Anti α1 action (% of Control) 10^−7 M: test drug 10^−7 M; for Anti α1 action (% of Control) 10^−8 M: test drug 10^−8 M
Protocol: The thoracic aorta of each Hartley male guinea pig (body weight: 300-500 g) was excised. A preparation cut in a helical form was suspended under 1 g load in a Magnus cylinder filled with the Tyrode solution which had been aerated with a gas mixture of 95% O2+5% CO2 and maintained at 37° C. Using an isometric transducer (“TB-612J”, manufactured by NIHON KOHDEN) and a pressure preamplifier (“AP-620G”, manufactured by NIHON KOHDEN), variations in tension were measured. The isometric tensions were recorded on a thermal pen-writing recorder (“WT-647G”, manufactured by NIHON KOHDEN).
Taking the tonic contraction induced by 10^−5 M norepinephrine (NE) as 100%, the percent contractions upon addition of each test drug at 10^−8 and 10^−7 M were determined as anti-α1 action.

Q: For `COC1=CN(CCCN2CCN(c3ccc(F)cc3)CC2)S(=O)(=O)c2ccccc21` [Compound No. 56, 2-[3-[4-(4-fluorophenyl)piperazin-1-yl]propyl]-4-methoxy-2H-1,2-benzothiazine 1,1-dioxide], which “Anti 5-HT action (% of Control) 10^−6 M” value (serotonin-2 receptor) is on record?
A: The value was 16.9 % of Control.

Q: And the “Anti 5-HT action (% of Control) 10^−7 M” value (serotonin-2 receptor)?
A: Its value is 60.8 % of Control.

Q: And the “Anti α1 action (% of Control) 10^−7 M” value (α1 receptor)?
A: The value was 69.5 % of Control.

Q: And the “Anti α1 action (% of Control) 10^−8 M” value (α1 receptor)?
A: The value was 95.4 % of Control.

Q: With `COC1CN(CCCN2CCN(c3ccc(F)cc3)CC2)S(=O)(=O)c2ccccc21` (stereo not drawn) [Compound No. 57, 2-[3-[4-(4-fluorophenyl)piperazin-1-yl]propyl]-4-methoxy-3,4-dihydro-2H-1,2-benzothiazine 1,1-dioxide] as the compound, how does the “Anti 5-HT action (% of Control) 10^−6 M” value (serotonin-2 receptor) read?
A: The value was 10.0 % of Control.

Q: And the “Anti 5-HT action (% of Control) 10^−7 M” value (serotonin-2 receptor)?
A: Its value is 22.0 % of Control.

Q: And the “Anti α1 action (% of Control) 10^−7 M” value (α1 receptor)?
A: Its value is 81.6 % of Control.

Q: And the “Anti α1 action (% of Control) 10^−8 M” value (α1 receptor)?
A: The value was 97.3 % of Control.

Q: `COc1ccc2c(c1)C1(CN(CCCN3CCN(c4ccc(F)cc4)CC3)S2(=O)=O)OCCO1` [Compound No. 115, 2-[3-[4-(4-fluorophenyl)piperazin-1-yl]propyl]-6-methoxy-3,4-dihydro-2H-1,2-benzothiazin-4-one 1,1-dioxide ethylene acetal] was tested. Which “Anti 5-HT action (% of Control) 10^−6 M” value (serotonin-2 receptor) did it give?
A: The value was 14.1 % of Control.

Q: What about the “Anti 5-HT action (% of Control) 10^−7 M” value (serotonin-2 receptor) of the same compound?
A: Its value is 63.0 % of Control.

Q: What about the “Anti α1 action (% of Control) 10^−7 M” value (α1 receptor) of the same compound?
A: Its value is 62.3 % of Control.

Q: And the “Anti α1 action (% of Control) 10^−8 M” value (α1 receptor)?
A: Its value is 100.4 % of Control.

Q: Which “Anti 5-HT action (% of Control) 10^−6 M” value (serotonin-2 receptor) does the source give for `O=C(c1ccc(F)cc1)C1CCN(CCCN2CC3(OCCO3)c3ccccc3S2(=O)=O)CC1` [Compound No. 40, 2-[3-[4-(4-fluorobenzoyl)piperidino]-propyl]-3,4-dihydro-2H-1,2-benzothiazine-4-spiro-2′-(1′,3′-dioxolan) 1,1-dioxide] here?
A: The value was 13.4 % of Control.

Q: What about the “Anti 5-HT action (% of Control) 10^−7 M” value (serotonin-2 receptor) of the same compound?
A: Its value is 37.4 % of Control.

Q: And the “Anti α1 action (% of Control) 10^−7 M” value (α1 receptor)?
A: The value was 73.2 % of Control.

Q: And the “Anti α1 action (% of Control) 10^−8 M” value (α1 receptor)?
A: Its value is 98.3 % of Control.

Q: How did the “Anti 5-HT action (% of Control) 10^−6 M” value (serotonin-2 receptor) turn out when `O=S1(=O)c2ccccc2C2(CN1CCCN1CCN(c3ccc(O)cc3)CC1)OCCO2` [Compound No. 37, 2-[3-[4-(4-hydroxyphenyl)piperazin-1-yl]propyl]-3,4-dihydro-2H-1,2-benzothiazin-4-one 1,1-dioxide ethylene acetal] was run?
A: Its value is 8.3 % of Control.

Q: What about the “Anti 5-HT action (% of Control) 10^−7 M” value (serotonin-2 receptor) of the same compound?
A: The value was 15.7 % of Control.

Q: And the “Anti α1 action (% of Control) 10^−7 M” value (α1 receptor)?
A: Its value is 96.2 % of Control.

Q: And the “Anti α1 action (% of Control) 10^−8 M” value (α1 receptor)?
A: The value was 100 % of Control.

Q: Which results are given for `COc1cccc2c1C1(CN(CCCN3CCN(c4ccc(F)cc4)CC3)S2(=O)=O)SCCS1` [Compound No. 123, 2-[3-[4-(4-fluorophenyl)piperazin-1-yl]propyl]-5-methoxy-3,4-dihydro-2H-1,2-benzothiazine-4-spiro-2′-(1′,3′-dithiolane) 1,1-dioxide]?
A: Anti 5-HT action (% of Control) 10^−7 M (serotonin-2 receptor): 49.3 % of Control; Anti α1 action (% of Control) 10^−7 M (α1 receptor): 13.0 % of Control; Anti α1 action (% of Control) 10^−8 M (α1 receptor): 97.9 % of Control

Q: How did the “Anti 5-HT action (% of Control) 10^−7 M” value (serotonin-2 receptor) turn out when `O=S1(=O)c2cccc(Cl)c2C2(CN1CCCN1CCN(c3ccc(O)cc3)CC1)OCCO2` [Compound No. 114, 5-chloro-2-[3-[4-(4-hydroxyphenyl)piperazin-1-yl]propyl]-3,4-dihydro-2H-1,2-benzothiazin-4-one 1,1-dioxide ethylene acetal] was run?
A: Its value is 23.5 % of Control.

Q: What about the “Anti α1 action (% of Control) 10^−7 M” value (α1 receptor) of the same compound?
A: The value was 98.9 % of Control.

Q: And the “Anti α1 action (% of Control) 10^−8 M” value (α1 receptor)?
A: The value was 101.1 % of Control.

Q: `O=S1(=O)c2ccccc2C2(CN1CCCN1CCN(c3ccc(F)cc3)CC1)OCCO2` [Compound No. 62, 2-[3-[4-(4-fluorophenyl)piperazin-1-yl]propyl]-3,4-dihydro-2H-1,2-benzothiazin-4-one 1,1-dioxide ethylene acetal] was tested. Which “Anti 5-HT action (% of Control) 10^−6 M” value (serotonin-2 receptor) did it give?
A: The value was 3.3 % of Control.

Q: And the “Anti 5-HT action (% of Control) 10^−7 M” value (serotonin-2 receptor)?
A: The value was 14.1 % of Control.

Q: And the “Anti α1 action (% of Control) 10^−7 M” value (α1 receptor)?
A: Its value is 53.1 % of Control.

Q: What about the “Anti α1 action (% of Control) 10^−8 M” value (α1 receptor) of the same compound?
A: Its value is 98.1 % of Control.
